From ChEMBL document CHEMBL3244268, “Nucleosides. 102. Synthesis of some 3'-deoxy-3'-substituted arabinofuranosylpyrimidine nucleosides” (1977)
Converted amounts (≈) assume the structure as drawn.

Key:
L5178Y [1] = test: Growth inhibition of mouse L5178Y cells at 10 ug/ml; assay type: functional; settings: read-out: GI
L5178Y [2] = test: Growth inhibition of mouse L5178Y cells; assay type: functional; settings: read-out: ID50 (the source's name)

| SMILES | inhibition of growth at 10 µg/mL (L5178Y [1]) [%] | IC50 (L5178Y [2]) [µg/mL] |
| --- | --- | --- |
| O=c1ccn([C@@H]2O[C@H](CO)[C@@H](Br)[C@@H]2O)c(=O)[nH]1 | 6 |  |
| [N-]=[N+]=N[C@H]1[C@H](O)[C@H](n2ccc(N)nc2=O)O[C@@H]1CO |  | 0.5 (≈ 1.86 µM) |
| O=c1ccn([C@@H]2O[C@H](CO)[C@@H](I)[C@@H]2O)c(=O)[nH]1 | 0 |  |
| O=c1ccn([C@@H]2O[C@H](CO)[C@@H](N=C=S)[C@@H]2O)c(=O)[nH]1 | 5 |  |
| Nc1ccn([C@@H]2O[C@H](CO)[C@@H](Br)[C@@H]2O)c(=O)n1 |  | 10 (≈ 32.7 µM) |
| Nc1ccn([C@@H]2O[C@H](CO)[C@@H](N=C=S)[C@@H]2O)c(=O)n1 | 34 |  |
| [N-]=[N+]=N[C@H]1[C@H](O)[C@H](n2ccc(=O)[nH]c2=O)O[C@@H]1CO | 0 |  |
| Nc1ccn([C@@H]2O[C@H](CO)[C@@H](I)[C@@H]2O)c(=O)n1 |  | 1 (≈ 2.83 µM) |
